The values that follow come from patent US9278962B2 (Cytokinetics, Inc., priority 2011, dated 2016).

The test system of the test is rabbit skeletal myofibrils (approximately 90% fast fibers). Briefly: Activation of fast skeletal myofibrils (PUMA coupled-enzyme ATPase assay, AC1.4). The conditions noted are these: concentration at which the compound increased enzymatic activity by 40%, calcium at pCa25. It counts as biochemical.

For the molecule `Fc1cccnc1C1(CNc2nnc(-c3cccs3)s2)CCC1` [N-((1-(3-fluoropyridin-2-yl)cyclobutyl)methyl)-5-(thiophen-2-yl)-1,3,4-thiadiazol-2-amine], the “Mean AC1.4” value (Table 3) was “B (B=1-10 uM)”.
With `Cc1ccccc1-c1nnc(NCC2(c3ncccc3F)CCC2)s1` [N-((1-(3-fluoropyridin-2-yl)cyclobutyl)methyl)-5-o-tolyl-1,3,4-thiadiazol-2-amine], the “Mean AC1.4” value (Table 3) is “B (B=1-10 uM)”.
`Cc1ccc(-c2nnc(NCC3(c4ncccc4F)CCC3)s2)cc1` [N-((1-(3-fluoropyridin-2-yl)cyclobutyl)methyl)-5-p-tolyl-1,3,4-thiadiazol-2-amine]: the “Mean AC1.4” value (Table 3) is on record as “B (B=1-10 uM)”.
In the case of `Fc1cccnc1C1(CNc2noc(-c3ccccc3)n2)CCC1` [N-((1-(3-fluoropyridin-2-yl)cyclobutyl)methyl)-5-phenyl-1,2,4-oxadiazol-3-amine], for the setting “Table 5”, the “Mean AC1.4” value is on record as “D (D=>20 uM)”.
On to `Fc1cccnc1C1(CNc2nsc(-c3ccccc3)n2)CCC1` [N-((1-(3-fluoropyridin-2-yl)cyclobutyl)methyl)-5-phenyl-1,2,4-thiadiazol-3-amine], for which, for the setting “Table 2”, the “Mean AC1.4” value is “D (D=>20 uM)”.
Take `Fc1cccnc1C1(CNc2nnc(-c3ccccc3)o2)CCC1` [N-((1-(3-fluoropyridin-2-yl)cyclobutyl)methyl)-5-phenyl-1,3,4-oxadiazol-2-amine]: where the note is “Table 5”, the “Mean AC1.4” value is reported as “D (D=>20 uM)”.
Turning to `Fc1cccnc1C1(CNc2nnc(-c3ccccc3)s2)CCC1` [N-((1-(3-fluoropyridin-2-yl)cyclobutyl)methyl)-5-phenyl-1,3,4-thiadiazol-2-amine], the “Mean AC1.4” value (Table 3) is “A (A=<1 uM)”.
Consider `Fc1cccnc1C1(CNc2ncc(-c3ccccc3)s2)CCC1` [N-((1-(3-fluoropyridin-2-yl)cyclobutyl)methyl)-5-phenylthiazol-2-amine], for which the “Mean AC1.4” value (Table 5) is “A (A=<1 uM)”.
For `Fc1cccnc1C1(CNc2nc3ccccc3s2)CCC1` [N-((1-(3-fluoropyridin-2-yl)cyclobutyl)methyl)benzo[d] thiazol-2-amine], under “Table 4”, the “Mean AC1.4” value is “C (C=10-20 uM)”.
For `Cn1cc(-c2nnc(NC[C@]3(c4ncccc4F)C[C@H](F)C3)s2)cn1` [N-((3-fluoro-1-(3-fluoropyridin-2-yl)cyclobutyl)methyl)-5-(1-methyl-1H-pyrazol-4-yl)-1,3,4-thiadiazol-2-amine], for the setting “Table 3”, the “Mean AC1.4” value is on record as “D (D=>20 uM)”.
Take `Cn1nccc1-c1nnc(NC[C@]2(c3ncccc3F)C[C@H](F)C2)s1` [N-((3-fluoro-1-(3-fluoropyridin-2-yl)cyclobutyl)methyl)-5-(1-methyl-1H-pyrazol-5-yl)-1,3,4-thiadiazol-2-amine]: under “Table 3”, the “Mean AC1.4” value was “D (D=>20 uM)”.
Turning to `Cc1ccc(F)c(-c2nnc(NC[C@]3(c4ncccc4F)C[C@H](F)C3)s2)c1` [N-((3-fluoro-1-(3-fluoropyridin-2-yl)cyclobutyl)methyl)-5-(2-fluoro-5-methylphenyl)-1,3,4-thiadiazol-2-amine], the “Mean AC1.4” value (Table 3) is given as “A (A=<1 uM)”.
Take `C=Cc1ccc(F)c(-c2nnc(NC[C@]3(c4ncccc4F)C[C@H](F)C3)s2)c1` [N-((3-fluoro-1-(3-fluoropyridin-2-yl)cyclobutyl)methyl)-5-(2-fluoro-5-vinylphenyl)-1,3,4-thiadiazol-2-amine]: under “Table 3”, the “Mean AC1.4” value was “A (A=<1 uM)”.
On the same count and under the same terms, then `Fc1ccccc1-c1nnc(NC[C@]2(c3ncccc3F)C[C@H](F)C2)s1` [N-((3-fluoro-1-(3-fluoropyridin-2-yl)cyclobutyl)methyl)-5-(2-fluorophenyl)-1,3,4-thiadiazol-2-amine], with “A (A=<1 uM)”; and `CSc1ncc(C)c(-c2nnc(NC[C@]3(c4ncccc4F)C[C@H](F)C3)s2)n1` [N-((3-fluoro-1-(3-fluoropyridin-2-yl)cyclobutyl)methyl)-5-(5-methyl-2-(methylthio)pyrimidin-4-yl)-1,3,4-thiadiazol-2-amine], with “B (B=1-10 uM)”.
`Fc1cccnc1[C@]1(CNc2nnc(-c3ccon3)s2)C[C@@H](F)C1` [N-((3-fluoro-1-(3-fluoropyridin-2-yl)cyclobutyl)methyl)-5-(isoxazol-3-yl)-1,3,4-thiadiazol-2-amine]: the “Mean AC1.4” value (Table 3) is “C (C=10-20 uM)”.
